Reference: patent US20220242812A1, “SWELL1-LRRC8 COMPLEX MODULATORS” (Washington University, priority 2019, published 2022)
Entries after “also recorded” stand apart in the source; their conditions may differ. Blank lines part the entries; values can stand above or below the compound they belong to.

Tests used:
[1] = biological target: ICl,SWELL (SWELL1 channel) (Homo sapiens, UniProt Q8IWT6); experiment: Patch-clamp screening of Smod compounds for ICl,SWELL inhibitory activity; assay type: cell-based; settings: preliminary patch-clamp experiments, in words
From the text: FIG. 2. Patch-clamp screening of Smod compounds for ICL,SWELL inhibitory activity.
FIG. 3. Patch-clamp screening of Smod compounds for ICL,SWELL inhibitory activity.
A series of compounds (Smod compounds) were synthesized to evaluate the role of a butyrate side chain and aryl substituents on activity (see FIG. 1 and Table 1 below). In preliminary patch-clamp experiments to screen for compounds that preserve or enhance SWELL1 modulatory activity, unique structural derivatives were identified with ICl,SWELL inhibitory activity (Smod 2-6, FIGS. 2, 3, and 12-16, as well as Table 1 below). […] In vitro channel inhibitory activity was also maintained with Smod3-5 (FIG. 3). Note that compounds were also identified that lack activity, and therefore are not SWELL1 modulators (i.e., Snot1, FIGS. 2A and 3A). FIG. 4 summarizes three dose response curves of isolated enantiomers of Smod1 (+ and −) compared to Smod3. […] FIG. 5 summarizes the synthetic scheme used to generate these compounds.

HFD T2D mice = experiment: Glucose tolerance and fasting glucose in HFD T2D mice (Smod compounds, Example 2); assay type: in vivo
Method: FIG. 7. Representative glucose tolerance test data, area under curve (AUC) and fasting glucose for mice treated with a vehicle, and 5 mg/kg/day Smod3 or Snot1 for 5 days. Smod3, but not Snot1 improves glucose tolerance (as measured by are under the curve, AUC), and fasting glucose in HFD T2D mice. N=5 mice in each group. *p<0.05, ** p<0.01, *** p<0.001.
FIG. 8. Glucose Tolerance of obese T2D mice (16 weeks HFD): Pre-Smod6 (black circles), after Smod6 (5 mg/kg i.p.×5 days, pink triangles), 4 weeks after i.p. vehicle injection (blue diamonds), and 4 weeks after discontinuing Smod6 (maroon squares).
FIG. 9. Glucose Tolerance of obese T2D mice (16 weeks HFD): 4 weeks after i.p. vehicle injection (black circles), 4 weeks after Snot1 (5 mg/kg i.p.×5 days, blue squares), and 4 weeks after Smod6 (5 mg/kg i.p.×5 days, maroon triangles).
Moreover, Smod3, and not Snot1 (5 mg/kg i.p.×[…]) improve glucose tolerance (GTT, Area under the curve) and fasting glucose (FG) in mice raised on HFD for 8 weeks in pilot studies (FIG. 7).

[2] = biological target: T1, SWELL1-LRRC8 channel (ICl,SWELL) in HEK-293 cells (Homo sapiens, UniProt Q8IWT6); experiment: ICl,SWELL inhibition after hypotonic activation, patch-clamp in HEK-293 cells; assay type: cell-based; settings: HEK-293 cells, hypotonic (210 mOsm), 10 and 7 μM, relative to SN-401
T1 construct: endogenous in cells; host or cells: HEK-293 (ATCC CRL-1573)
Method: Mean presented±SEM. Two-tailed unpaired t-test was used. *, **, and *** represents p<0.05, p<0.01 and p<0.001, respectively.
(§1) Patch-clamp recordings of β-cells and mature adipocytes were performed as described previously (Kang et al., 2018; Zhang et al., 2017). 3T3-F442A WT and KO preadipocytes were prepared as described in the Cell culture section above. For SWELL1 overexpression recordings, preadipocytes were first transduced with Ad5-CAG-LoxP-stop-LoxP-3×Flag-SWELL1 (MOI 12) in 2% FBS culture medium for two days and then overexpression induced by adding Ad5-CMV-Cre-wt-lRES-eGFP (MOI 10-12) in 2% FBS culture medium for two more days and changed to 10% FBS containing culture media and were selected based on GFP expression (˜2-3 days). For cell recordings, islets were transduced with Ad-RIP2-GFP and then dispersed after 48-72 hours for patch-clamp experiments. GFP+ cells marked β-cells selected for patch-clamp recordings. […] Recordings were measured using […] amplifier paired to a Digidata 1550 digitizer using pClamp 10.4 software. The extracellular buffer composition for hypotonic stimulation contains 90 mM NaCl, 2 mM CsCl, 1 mM MgCl, 1 mM CaCb, 10 mM HEPES, 10 mM Mannitol, pH 7.4 with NaOH (210 mOsm/kg). The extracellular isotonic buffer composition is same as above except for Mannitol concentration of 110 mM (300 mOsm/kg). The composition of intracellular buffer is 120 mM L-aspartic acid, 20 mM CsCl, 1 mM MgCl, 5 mM EGTA, 10 mM HEPES, 5 mM MgATP, 120 mM CsOH, 0.1 mM GTP, pH 7.2 with CsOH. All recordings were carried out at room temperature (RT) with HEK-293 cells, β-cells and 3T3-F442A cells performed in whole-cell configuration and human adipocytes in perforated-patch configuration, as previously described (Kang et al., 2018; Zhang et al., 2017).

SWELL1 protein [3] = biological target: T2, SWELL1 protein (Mus musculus, UniProt Q80WG5); settings: 3T3-F442A adipocytes, 1 and 10 μM, 4 days
[4] = biological target: T3, closed SWELL1-LRRC8 channel in HEK-293 cells (Homo sapiens, UniProt Q8IWT6); experiment: ICl,SWELL inhibition on application to the closed SWELL1-LRRC8 channel (30 min preincubation), HEK-293 cells; assay type: cell-based; settings: 1 μM, 30 minutes prior to hypotonic activation
T3 construct: endogenous in cells; host or cells: HEK-293 (ATCC CRL-1573)
Method: as §1

HFD-induced T2D mice = experiment: Metabolic phenotyping (fasting glucose, GTT, ITT) in HFD-fed T2D mice; assay type: in vivo; settings: HFD 8 weeks, 5 mg/kg/day x 4 days, compared to SN071
Method: (§2) All compounds were dissolved in Kolliphor® EL (Sigma, #C5135).
Mice were fasted for 6 h prior to glucose tolerance tests (GTT). Baseline glucose levels at 0 min timepoint (fasting glucose, FG) were measured from blood sample collected from tail snipping using glucometer (Bayer Healthcare LLC). Either 1 g or 0.75 g D-Glucose/kg body weight were injected (i.p.) for lean or HFD mice, respectively and glucose levels were measured at 7, 15, 30, 60, 90 and 120 min timepoints after injection. For insulin tolerance tests (ITTs), the mice were fasted for 4 h. […] All mice and treatment groups were assessed blindly while performing experiments.

polygenic T2D KKAy mice = experiment: Metabolic phenotyping (fasting glucose, GTT, ITT) in polygenic T2D KKAy mice; assay type: in vivo; settings: T2D KKAy mice, 5 mg/kg i.p. 4 days, compared to SN071
From the text: All C57BL/6 mice involved in study were purchased from Charles River Labs. Both KK.Cg-Ay/J (KKN) and KK.Cg-Aa/J (KKAa) mice involved in study were gender and age-matched mice obtained from Jackson Labs (Stock No: 002468) and bred up for experiments. The mice were fed ad libitum with either regular chow (RC) or high-fat diet (Research Diets, Inc., 60 kcal % fat) with free access to water and housed in a light-, temperature- and humidity-controlled room. For high-fat diet (HFD) studies, only male mice were used and were started on HFD regimen at the age of 6-9 weeks. For all experiments involving KKN and KKAa mice, both males and females were used at approximately 50/50 ratio. In all experiments involving mice, investigators were kept blinded both during the experiments and subsequent analysis.
as §2
Mice were fasted for 6 h prior to glucose tolerance tests (GTT). Baseline glucose levels at 0 min timepoint (fasting glucose, FG) were measured from blood sample collected from tail snipping using glucometer (Bayer Healthcare LLC). Either 1 g or 0.75 g D-Glucose/kg body weight were injected (i.p.) for lean or HFD mice, respectively and glucose levels were measured at 7, 15, 30, 60, 90 and 120 min timepoints after injection. For insulin tolerance tests (ITTs), the mice were fasted for 4 h. Similar to GTTs, the baseline blood glucose levels were measured at 0 min timepoint and 15, 30, 60, 90 and 120 min timepoints post-injection (i.p.) of insulin (HumulinR, 1 U/kg body weight for lean mice or 1.25 U/kg body weight for HFD mice). […] The collected plasma was then measured for insulin content by using Ultra-Sensitive Mouse Insulin ELISA Kit (Crystal Chem, #90080). All mice and treatment groups were assessed blindly while performing experiments.

[5] = test system: islets, glucose-stimulated insulin secretion; experiment: Islet perifusion GSIS assay, islets from treated T2D mice; assay type: in vivo; settings: islets of T2D KKAy mice, compared to SN071
Method: For patch-clamp studies involving primary mouse cells, the mice were anesthesized by injecting Avertin (0.0125 g/ml in H2O) followed by cervical dislocation. […] Perifusion buffer contained (in mM): 120 NaCl, 24 NaHCO3, 4.8 KCl, 2.5 CaCl, 1.2 MgSO4, 10 HEPES, 2.8 glucose, 27.2 mannitol, 0.25% w/v bovine serum albumin, pH 7.4 with NaOH (300 mOsm/kg). Perifusion buffer kept at 37° C. was circulated at 120 μI/min After 48 min of washing with 2.8 mM glucose solution for stabilization, islets were stimulated with the following sequence: 16 min of 16.7 mM glucose, 40 min of 2.8 mM glucose, 10 min of 30 mM KCl, and 12 min of 2.8 mM glucose. Osmolarity was matched by adjusting mannitol concentration when preparing solution containing 16.7 mM glucose. Serial samples were collected either every 1 or 2 min into 96 wells kept at 4° C. Insulin concentrations were further determined using commercially available ELISA kit (Mercodia). The area under the curve (AUC) for the high-glucose induced insulin release was calculated for time points between 50 to 74/84 min. At the completion of the experiments, islets were further lysed by addition of RIPA buffer and the amount of insulin was detected by ELISA.

SWELL1 protein [6] = biological target: T2, SWELL1 protein; experiment: Glucolipotoxic stress (palmitate + glucose) SWELL1 protein in 3T3-F442A adipocytes; settings: 10 μM 96 h, 1 mM palmitate + 25 mM glucose
[7] = mice on HFD 8 weeks, 5 mg/kg i.p. x 4 days (FIG. 7 legend: 5 days), listed as Smod3, 5 mg/kg

Compound: CCCCC1(C2CCCC2)Cc2cc(OCCCN(C)C)c(Cl)c(Cl)c2C1=O.Cl (racemic) [UICK-IV-105b]
ICl,SWELL inhibitory activity ([1]; listed as Smod2): active; also recorded: maintaining activity

ICl,SWELL inhibitory activity ([1]; listed as Smod3): maintaining and augmenting activity
Compound: CCCCC1(C2CCCC2)Cc2cc(OCCCCC(=O)O)c(Cl)c(Cl)c2C1=O (racemic) [UICK-IV-119]
Fasting glucose (FG) (HFD T2D mice; [7]): improves
Glucose tolerance (GTT, area under the curve) (HFD T2D mice; [7]): improves

ICl,SWELL inhibitory activity [1]: maintaining activity
Compound: CCCCC1(C2CCCC2)Cc2cc(OC/C=C/C(=O)O)c(Cl)c(Cl)c2C1=O (racemic) [UIPC-II-179]

Compound: CCCCC1(C2CCCC2)Cc2cc(OCCCC(=O)O)c(C)c(C)c2C1=O (racemic) [UIPC-II-187B]
ICl,SWELL inhibitory activity ([1]; listed as Smod5): did not significantly alter activity; also recorded: maintaining activity

Compound: CCCCC1(C2CCCC2)Cc2cc(OCCCCCC(=O)O)c(Cl)c(Cl)c2C1=O (racemic) [UIPC-III-045B]
Glucose tolerance 4 weeks after discontinuing treatment (HFD T2D mice; T2D HFD fed mice, 5 mg/kg i.p. x 5 days, after 20 weeks HFD): sustain improved glucose tolerance

On-target inhibition of ICl,SWELL [2]: eliminate ICl,SWELL inhibitory activity
On-target inhibition of ICl,SWELL ([2]; listed as S1\1071): entirely eliminated
SWELL1 protein level relative to vehicle-treated controls (SWELL1 protein [3]): do not significantly increase
Subsequent hypotonic SWELL1-LRRC8 activation [4]: inactive
Compound: CCCCC1(C2CCCC2)Cc2cc(OCC(=O)O)c(Cl)c(Cl)c2C1=O (centres unmarked) [SN071, 2-((2-butyl-6,7-dichloro-2-cyclopentyl-1-oxo-2,3-dihydro-1H-inden-5-yl)oxy)acetic acid]

On-target inhibition of ICl,SWELL [2]: maintained or enhanced
Compound: CCCCC1(C2CCCC2)Cc2cc(OCCCCC(=O)O)c(Cl)c(Cl)c2C1=O (centres unmarked) [SN-403, 5-((2-butyl-6,7-dichloro-2-cyclopentyl-1-oxo-2,3-dihydro-1H-inden-5-yl)oxy)pentanoic acid]
Fasting blood glucose (HFD-induced T2D mice): significantly reduced
Glucose tolerance (HFD-induced T2D mice): improved

Compound: CCCCC1(C2CCCC2)Cc2cc(OCCCCCCC(=O)O)c(Cl)c(Cl)c2C1=O (centres unmarked) [SN-407, 7-((2-butyl-6,7-dichloro-2-cyclopentyl-1-oxo-2,3-dihydro-1H-inden-5-yl)oxy)heptanoic acid]
On-target inhibition of ICl,SWELL [2]: maintained or enhanced; also recorded: increase
Glucose tolerance based on the GTT AUC (polygenic T2D KKAy mice): improved
GSIS [5]: increased

Compound: CCCCC1(C2CCCC2)Cc2cc(OCC(=O)O)c(Cl)c(Cl)c2C1=O (centres unmarked) [UICK-IV-101a]
ICl,SWELL inhibitory activity ([1]; listed as Snot1): lack activity; also recorded: lacking ICl,SWELL inhibitory activity
Glucose tolerance (GTT, area under the curve) (HFD T2D mice; mice on HFD 8 weeks, 5 mg/kg i.p. x 4 days (FIG. 7 legend: 5 days)): not

SWELL1 protein level relative to vehicle-treated controls (SWELL1 protein [3]): do not significantly increase
Subsequent hypotonic SWELL1-LRRC8 activation [4]: inactive
Compound: O=C(O)CCCOc1cc2c(c(Cl)c1Cl)C(=O)C(C1CCCC1)C2 (centres unmarked) [UIPC-III-083B, 4-((6,7-dichloro-2-cyclopentyl-1-oxo-2,3-dihydro-1H-inden-5-yl)oxy)butanoic acid]
On-target inhibition of ICl,SWELL ([2]; listed as SN072): entirely eliminated; also recorded: eliminate ICl,SWELL inhibitory activity
Prevention of palmitate/glucose-induced SWELL1 protein reduction (SWELL1 protein [6]): not
